Data: ChEMBL document CHEMBL1143729, “Biotransformation of polymethoxylated flavonoids: access to their 4'-O-demethylated metabolites” (J Nat Prod, 2007)

System: Aspergillus niger
Assay: Inhibition of CYP450-mediated tangeretin demethylation in Aspergillus niger ATCC 9142 assessed as relative activity at 0.5 mM

SMILES	relative activity [%]
CCCC(C(=O)OCCN(CC)CC)(c1ccccc1)c1ccccc1	0
CC1=CC(=O)c2ccccc2C1=O	0
Clc1ccc(COC(Cn2ccnc2)c2ccc(Cl)cc2Cl)c(Cl)c1 (centres undefined)	10
CC(C)(C(=O)c1cccnc1)c1cccnc1	40
